Here are results for 31 compounds from patent publication US12336981B2, “Compounds and compositions for the inhibition of NAMPT” (Valo Health, Inc., priority 2010, dated 2025).

The target in one experiment is T1, NAMPT (Homo sapiens, UniProt P43490).
T1 construct: His tag; host or cells: E. coli
Nature of the experiment: Biochemical inhibition assay: NAMPT enzymatic reaction, NMN quantified by mass spectrometry. The conditions noted are these: read-out: Biochem IC50. The method, boiled down: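 Inhibition of E. coli-expressed His-tagged human NAMPT, measured as NMN formation by mass spectrometry after a 30 min room-temperature reaction containing 1 μM NAM, 100 μM PRPP and 2.5 mM ATP.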

The test system of another experiment is A2780 cells. As to the kind of experiment: In-vitro cell proliferation assay (SRB), A2780 cells. Type of experiment: cell-based. The conditions noted are these: Homo sapiens, A2780, 72 h, A2780 cells, 72 hours, read-out: A2780 IC50. The gist of the method: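 Viable cells measured by SRB staining after 6% TCA fixation, absorbance 570 nm. Media-only background subtracted; % inhibition derived at two compound concentrations.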

The pIC50 is −log10 of the IC50, conventionally taken in molar units.

pIC50: −log10 of the molar value. Where two headings read alike, the source gives them in different places.

T1 sequence (P43490 whole entry): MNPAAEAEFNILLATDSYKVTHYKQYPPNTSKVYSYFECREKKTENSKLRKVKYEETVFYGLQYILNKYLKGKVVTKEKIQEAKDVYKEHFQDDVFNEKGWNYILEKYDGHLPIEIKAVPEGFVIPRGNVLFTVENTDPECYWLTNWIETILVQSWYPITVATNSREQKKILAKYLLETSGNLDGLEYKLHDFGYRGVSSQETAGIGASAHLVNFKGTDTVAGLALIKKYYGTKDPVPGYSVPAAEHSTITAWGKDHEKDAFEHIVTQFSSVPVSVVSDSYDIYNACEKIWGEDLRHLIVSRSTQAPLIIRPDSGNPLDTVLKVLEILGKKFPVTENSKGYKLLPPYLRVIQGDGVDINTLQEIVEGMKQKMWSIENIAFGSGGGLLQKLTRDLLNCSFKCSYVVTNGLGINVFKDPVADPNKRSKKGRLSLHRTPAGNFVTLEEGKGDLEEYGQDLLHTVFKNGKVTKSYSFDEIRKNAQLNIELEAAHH

As for `COc1ccc(S(=O)(=O)c2ccc(CNC(=O)c3cc4ccncc4s3)cc2)cc1C` [N-({4-[{4-methoxy-3-methylbenzene)sulfonyl]phenyl}methyl)thieno[2,3-c]pyridine-2-carboxamide], the pIC50 is 8.52 at NAMPT (NAMPT enzymatic reaction) and 8.62 in the experiment with A2780 cells (SRB assay).
In the same order, the values of `O=C(Nc1ccc(S(=O)(=O)c2ccccc2)cc1)c1cccnc1` [N-[4-(benzenesulfonyl)phenyl]pyridine-3-carboxamide] are 4.92 and less than 4.52.
As for `O=C(Nc1ccc(S(=O)(=O)N2CCCCC2)cc1)c1cc2cnccc2[nH]1` [N-[4-(piperidine-1-sulfonyl)phenyl]-1H-pyrrolo[3,2-c]pyridine-2-carboxamide], the pIC50 at NAMPT (NAMPT enzymatic reaction) is 8.10; in the experiment with A2780 cells (SRB assay) it was 8.22.
Take `O=C(COc1cccnc1)Nc1ccc(S(=O)(=O)N2CCCCC2)cc1` [N-[4-(piperidine-1-sulfonyl)phenyl]-2-(pyridin-3-yloxy)acetamide]: the negative logarithm of the IC50 (pIC50) was 8.96 on NAMPT (NAMPT enzymatic reaction) and 8.18 in the experiment with A2780 cells (SRB assay).
In the same order, the values of `O=C(Nc1ccc(CNC(=O)c2cc3cnccc3[nH]2)cc1)c1ccccc1` [N-[(4-benzamidophenyl)methyl]-1H-pyrrolo[3,2-c]pyridine-2-carboxamide] are 7.72 and 8.40.
In the same order, the values of `O=C(NCc1ccc(NS(=O)(=O)c2ccccc2)cc1)c1cc2cnccc2[nH]1` [N-[(4-benzenesulfonamidophenyl)methyl]-1H-pyrrolo[3,2-c]pyridine-2-carboxamide] are 7.96 and 8.30.
With `CCN(C)c1ncc(S(=O)(=O)c2ccc(CNC(=O)c3cnc4[nH]ncc4c3)cc2)s1` [N-[(4-{2-[ethyl(methyl)amino]-1,3-thiazole-5-sulfonyl}phenyl)methyl]-1H-pyrazolo[3,4-b]pyridine-5-carboxamide], the negative-log IC50 (pIC50) was 8.44 on NAMPT (NAMPT enzymatic assay) and 8.82 with A2780 cells (SRB).
As to `CCN(C)c1ncc(S(=O)(=O)c2ccc(CNC(=O)c3cc4ccncc4o3)cc2)s1` [N-[(4-{2-[ethyl(methyl)amino]-1,3-thiazole-5-sulfonyl}phenyl)methyl]furo[2,3-c]pyridine-2-carboxamide], the pIC50 was 8.32 at NAMPT (NAMPT enzymatic assay) and 9.05 in the experiment on A2780 cells (SRB).
In the same order, the values of `CCN(C)c1ncc(S(=O)(=O)c2ccc(CNC(=O)c3ccc4nccn4c3)cc2)s1` [N-[(4-{2-[ethyl(methyl)amino]-1,3-thiazole-5-sulfonyl}phenyl)methyl]imidazo[1,2-a]pyridine-6-carboxamide] are 8.48 and 9.40.
In the same order, the values of `CCN(C)c1ncc(S(=O)(=O)c2ccc(CNC(=O)c3cnc4nccn4c3)cc2)s1` [N-[(4-{2-[ethyl(methyl)amino]-1,3-thiazole-5-sulfonyl}phenyl)methyl]imidazo[1,2-a]pyrimidine-6-carboxamide] are 8.74 and 9.05.
As for `CCN(C)c1ncc(S(=O)(=O)c2ccc(CNC(=O)c3cc4ccncc4s3)cc2)s1` [N-[(4-{2-[ethyl(methyl)amino]-1,3-thiazole-5-sulfonyl}phenyl)methyl]thieno[2,3-c]pyridine-2-carboxamide], the figures for the pIC50 on NAMPT (NAMPT enzymatic assay) and in the experiment on A2780 cells (SRB) were 8.54 and 8.92, respectively.
In the same order, the values of `O=C(NCc1ccc(S(=O)(=O)c2cnc3n2CCCCC3)cc1)c1cnc2[nH]ncc2c1` [N-[(4-{5H,6H,7H,8H,9H-imidazo[1,2-a]azepine-3-sulfonyl}phenyl)methyl]-1H-pyrazolo[3,4-b]pyridine-5-carboxamide] are 7.50 and 7.91.
As to `O=C(NCc1ccc(S(=O)(=O)c2cnc3n2CCCCC3)cc1)c1cc2ccncc2o1` [N-[(4-{5H,6H,7H,8H,9H-imidazo[1,2-a]azepine-3-sulfonyl}phenyl)methyl]furo[2,3-c]pyridine-2-carboxamide], the pIC50 was 8.22 at NAMPT (NAMPT enzymatic assay) and 8.24 in the experiment on A2780 cells (SRB).
In the case of `O=C(NCc1ccc(S(=O)(=O)c2cnc3n2CCCCC3)cc1)c1cnc2nccn2c1` [N-[(4-{5H,6H,7H,8H,9H-imidazo[1,2-a]azepine-3-sulfonyl}phenyl)methyl]imidazo[1,2-a]pyrimidine-6-carboxamide], the figures for the negative-log IC50 (pIC50) on NAMPT (NAMPT enzymatic assay) and with A2780 cells (SRB) were 8.96 and 7.54, respectively.
With `O=C(NCc1ccc(S(=O)(=O)c2cnc3n2CCCCC3)cc1)c1cc2ccncc2s1` [N-[(4-{5H,6H,7H,8H,9H-imidazo[1,2-a]azepine-3-sulfonyl}phenyl)methyl]thieno[2,3-c]pyridine-2-carboxamide], the figures for the negative-log IC50 (pIC50) on NAMPT (NAMPT enzymatic assay) and in the experiment with A2780 cells (SRB) were 8.52 and 9.10, respectively.
Turning to `O=C(NCc1ccc(S(=O)(=O)c2cnc3ccc(Cl)cn23)cc1)c1cnc2[nH]ncc2c1` [N-[(4-{6-chloroimidazo[1,2-a]pyridine-3-sulfonyl}phenyl)methyl]-1H-pyrazolo[3,4-b]pyridine-5-carboxamide], the values for the pIC50 at NAMPT (NAMPT enzymatic assay) and in the experiment with A2780 cells (SRB) were 8.48 and 9.10, respectively.
In the same order, the values of `O=C(NCc1ccc(S(=O)(=O)c2cnc3ccc(Cl)cn23)cc1)c1cc2cnccc2[nH]1` [N-[(4-{6-chloroimidazo[1,2-a]pyridine-3-sulfonyl}phenyl)methyl]-1H-pyrrolo[3,2-c]pyridine-2-carboxamide] are 7.88 and 8.85.
In the same order, the values of `O=C(NCc1ccc(S(=O)(=O)c2cnc3ccc(Cl)cn23)cc1)c1cc2ccncc2o1` [N-[(4-{6-chloroimidazo[1,2-a]pyridine-3-sulfonyl}phenyl)methyl]furo[2,3-c]pyridine-2-carboxamide] are 8.92 and 9.40.
For the compound `O=C(NCc1ccc(S(=O)(=O)c2cnc3ccc(Cl)cn23)cc1)c1ccc2nccn2c1` [N-[(4-{6-chloroimidazo[1,2-a]pyridine-3-sulfonyl}phenyl)methyl]imidazo[1,2-a]pyridine-6-carboxamide], the pIC50 on NAMPT (NAMPT enzymatic assay) was 8.28; with A2780 cells (SRB), 9.40.
In the same order, the values of `O=C(NCc1ccc(S(=O)(=O)c2cnc3ccc(Cl)cn23)cc1)c1cnc2nccn2c1` [N-[(4-{6-chloroimidazo[1,2-a]pyridine-3-sulfonyl}phenyl)methyl]imidazo[1,2-a]pyrimidine-6-carboxamide] are 8.80 and 9.40.
Turning to `O=C(NCc1ccc(S(=O)(=O)c2cnc3ccc(Cl)cn23)cc1)c1cc2ccncc2s1` [N-[(4-{6-chloroimidazo[1,2-a]pyridine-3-sulfonyl}phenyl)methyl]thieno[2,3-c]pyridine-2-carboxamide], the negative logarithm of the IC50 (pIC50) on NAMPT (NAMPT enzymatic assay) was 8.92; in the experiment with A2780 cells (SRB), 9.40.
With `O=C(NCc1ccc(S(=O)(=O)N2CC3CCC(C2)O3)cc1)c1cc2cnccc2[nH]1` [N-[(4-{8-oxa-3-azabicyclo[3.2.1]octane-3-sulfonyl}phenyl)methyl]-1H-pyrrolo[3,2-c]pyridine-2-carboxamide], the values for the negative-log IC50 (pIC50) on NAMPT (NAMPT enzymatic reaction) and in the experiment on A2780 cells (SRB assay) were 8.10 and 8.52, respectively.
In the same order, the values of `O=C(NCc1ccc(S(=O)(=O)N2CC3CCC(C2)O3)cc1)c1ccc2nccn2c1` [N-[(4-{8-oxa-3-azabicyclo[3.2.1]octane-3-sulfonyl}phenyl)methyl]imidazo[1,2-a]pyridine-6-carboxamide] are 8.40 and 8.52.
In the case of `O=C(NCc1ccc(S(=O)(=O)N2CC3CCC(C2)O3)cc1)c1cc2ccncc2s1` [N-[(4-{8-oxa-3-azabicyclo[3.2.1]octane-3-sulfonyl}phenyl)methyl]thieno[2,3-c]pyridine-2-carboxamide], the pIC50 at NAMPT (NAMPT enzymatic reaction) is 7.82; with A2780 cells (SRB assay), 8.52.
As for `O=C(NCc1ccc(S(=O)(=O)c2ccc(C(F)(F)F)cc2C(F)(F)F)cc1)c1cnc2[nH]ncc2c1` [N-[(4-{[2,4-bis(trifluoromethyl)benzene]sulfonyl}phenyl)methyl]-1H-pyrazolo[3,4-b]pyridine-5-carboxamide], the pIC50 on NAMPT (NAMPT enzymatic assay) was 7.09; in the experiment on A2780 cells (SRB), 7.25.
With `O=C(NCc1ccc(S(=O)(=O)c2ccc(C(F)(F)F)cc2C(F)(F)F)cc1)c1cc2ccncc2s1` [N-[(4-{[2,4-bis(trifluoromethyl)benzene]sulfonyl}phenyl)methyl]thieno[2,3-c]pyridine-2-carboxamide], the results for the pIC50 on NAMPT (NAMPT enzymatic assay) and with A2780 cells (SRB) were 7.67 and 8.37, respectively.
Turning to `O=C(NCc1ccc(S(=O)(=O)c2ccc(C(F)(F)F)cc2OCC(F)(F)F)cc1)c1ccc2nccn2c1` [N-[(4-{[2-(2,2,2-trifluoroethoxy)-4-(trifluoromethyl)benzene]sulfonyl}phenyl)methyl]imidazo[1,2-a]pyridine-6-carboxamide], the negative logarithm of the IC50 (pIC50) on NAMPT (NAMPT enzymatic assay) was 8.15; with A2780 cells (SRB), 8.92.
In the same order, the values of `O=C(NCc1ccc(S(=O)(=O)Nc2ccccc2CCO)cc1)c1cc2cnccc2[nH]1` [N-[(4-{[2-(2-hydroxyethyl)phenyl]sulfamoyl}phenyl)methyl]-1H-pyrrolo[3,2-c]pyridine-2-carboxamide] are 7.73 and 7.70.
`O=C(NCc1ccc(S(=O)(=O)c2cc(C(F)(F)F)ccc2OCc2ccccc2)cc1)c1cnc2[nH]ncc2c1` [N-[(4-{[2-(benzyloxy)-5-(trifluoromethyl)benzene]sulfonyl}phenyl)methyl]-1H-pyrazolo[3,4-b]pyridine-5-carboxamide]: the pIC50 at NAMPT (NAMPT enzymatic assay) and in the experiment with A2780 cells (SRB) was 6.00 to 7.00 throughout.
Turning to `O=C(NCc1ccc(S(=O)(=O)c2ccccc2OCc2ccccc2)cc1)c1cc2cnccc2[nH]1` [N-[(4-{[2-(benzyloxy)benzene]sulfonyl}phenyl)methyl]-1H-pyrrolo[3,2-c]pyridine-2-carboxamide], the results for the pIC50 on NAMPT (NAMPT enzymatic reaction) and with A2780 cells (SRB assay) were 7.74 and 7.48, respectively.
Consider `CN(C)C(=O)c1ccccc1S(=O)(=O)c1ccc(CNC(=O)c2cc3cnccc3[nH]2)cc1` [N-[(4-{[2-(dimethylcarbamoyl)benzene]sulfonyl}phenyl)methyl]-1H-pyrrolo[3,2-c]pyridine-2-carboxamide], for which the pIC50 on NAMPT (NAMPT enzymatic assay) was 6.00 to 7.00; on NAMPT (NAMPT enzymatic reaction), 6.02; in the experiment on A2780 cells (SRB assay), 6.32; in the experiment with A2780 cells (SRB), 6.00 to 7.00.
